Where a name gives a salt, the structure may show the parent alone.

For test [1], the system named is Clostridium sporogenes DSM 1664. Nature of the test: growth (OD595) fold change vs plate DMSO controls (fold change (ratio)); higher = more growth. As to conditions: incubation time: 27 h, anaerobic, 37 °C.
Test [2] has the same test system. Put plainly: fold change of Tryptamine concentration vs plate DMSO controls (fold change (ratio)); higher = more amine produced. As to conditions: incubation time: 27 h, anaerobic, 37 °C.

For the molecule `NCc1ccccc1CC(=O)N[C@@H]1C(=O)N2C(C(=O)O)=C(CSc3nnnn3CC(=O)O)CS[C@H]12` [Ceforanide], the growth in test [1] (0.6125 µM) was 0.842; in test [1] (1.25 µM), 0.767; in test [1] (2.5 µM) it was 0.564; in test [1] (5 µM), 0.36; in test [1] (10 µM) it was -0.0035; in test [1] (20 µM), -0.0325. The “fold change of Tryptamine concentration” value in test [2] (0.6125 µM) came to 0.989; in test [2] (1.25 µM), 1; in test [2] (2.5 µM) it was 1.04; in test [2] (5 µM), 0.576; in test [2] (10 µM), 0.035; in test [2] (20 µM), 0.0236.
Take `CC=CC1=C(C(=O)O)N2C(=O)[C@@H](NC(=O)[C@H](N)c3ccc(O)cc3)[C@H]2SC1` [Cefprozil]: the growth amounted to 1.1 in test [1] (0.6125 µM); 0.85 in test [1] (1.25 µM); 1.02 in test [1] (2.5 µM); 0.79 in test [1] (5 µM); 0.573 in test [1] (10 µM); 0.194 in test [1] (20 µM). For the same molecule, the “fold change of Tryptamine concentration” value was 1 in test [2] (0.6125 µM); 0.973 in test [2] (1.25 µM); 1 in test [2] (2.5 µM); 0.974 in test [2] (5 µM); 0.926 in test [2] (10 µM); 0.722 in test [2] (20 µM).
Regarding `CC(=O)OCC1=C(C(=O)O)N2C(=O)[C@@H](NC(=O)Cc3cccs3)[C@H]2SC1` [Cephalothin sodium salt], the growth in test [1] (0.6125 µM) was 0.841; in test [1] (1.25 µM), 0.629; in test [1] (2.5 µM) it was -0.0397; in test [1] (5 µM) it was -0.0266; in test [1] (10 µM), -0.0343; in test [1] (20 µM), -0.0372. For the same molecule, the “fold change of Tryptamine concentration” value in test [2] (0.6125 µM) is 0.905; in test [2] (1.25 µM) it was 0.0953; in test [2] (2.5 µM), 0.0223; in test [2] (5 µM), 0.0219; in test [2] (10 µM), 0.0236; in test [2] (20 µM), 0.0234.
`CC(C)/N=c1\cc2n(-c3ccc(Cl)cc3)c3ccccc3nc-2cc1Nc1ccc(Cl)cc1` [Clofazimine]: the growth in test [1] (0.6125 µM) is 1.11; in test [1] (1.25 µM) it was 1.34; in test [1] (2.5 µM) it was 1.22; in test [1] (5 µM) it was 0.64; in test [1] (10 µM), 0.578; in test [1] (20 µM) it was -0.0109. Moreover, the “fold change of Tryptamine concentration” value in test [2] (0.6125 µM) turned out to be 0.975; in test [2] (1.25 µM) it was 0.893; in test [2] (2.5 µM), 0.681; in test [2] (5 µM), 0.365; in test [2] (10 µM), 0.379; in test [2] (20 µM), 0.0193.
For the molecule `Cc1cc(C(C#N)c2ccc(Cl)cc2)c(Cl)cc1NC(=O)c1cc(I)cc(I)c1O` (stereo unspecified) [Closantel], the growth in test [1] (0.6125 µM) is 0.882; in test [1] (1.25 µM), 0.866; in test [1] (2.5 µM) it was 0.792; in test [1] (5 µM), 0.749; in test [1] (10 µM) it was 0.364; in test [1] (20 µM) it was -0.0258. Moreover, the “fold change of Tryptamine concentration” value in test [2] (0.6125 µM) came to 0.999; in test [2] (1.25 µM), 1.02; in test [2] (2.5 µM) it was 0.991; in test [2] (5 µM), 0.895; in test [2] (10 µM), 0.367; in test [2] (20 µM), 0.0184.
On to `Oc1c(Cl)cc(Cl)c(Cl)c1Cc1c(O)c(Cl)cc(Cl)c1Cl` [Hexachlorophene], for which the growth in test [1] (0.6125 µM) is 1.05; in test [1] (1.25 µM), 0.819; in test [1] (2.5 µM) it was 0.779; in test [1] (5 µM), 0.711; in test [1] (10 µM), -0.0128; in test [1] (20 µM) it was -0.032. Moreover, the “fold change of Tryptamine concentration” value was determined as 1.1 in test [2] (0.6125 µM); 1.03 in test [2] (1.25 µM); 1.09 in test [2] (2.5 µM); 0.693 in test [2] (5 µM); 0.0218 in test [2] (10 µM); 0.0164 in test [2] (20 µM).
In the case of `N[C@@H](C(=O)N[C@@H]1C(=O)N2C(C(=O)O)=C(Cl)CC[C@H]12)c1ccccc1` [Loracarbef], the growth was 1.15 in test [1] (0.6125 µM); 0.723 in test [1] (1.25 µM); -0.0147 in test [1] (2.5 µM); -0.0473 in test [1] (5 µM); -0.0388 in test [1] (10 µM); -0.0407 in test [1] (20 µM). Further, the “fold change of Tryptamine concentration” value came to 0.974 in test [2] (0.6125 µM); 0.86 in test [2] (1.25 µM); 0.0468 in test [2] (2.5 µM); 0.0243 in test [2] (5 µM); 0.0223 in test [2] (10 µM); 0.0215 in test [2] (20 µM).
On to `O=C1NCCN1c1ncc([N+](=O)[O-])s1` [Niridazole], for which the growth was 1.08 in test [1] (0.6125 µM); 1.15 in test [1] (1.25 µM); 0.588 in test [1] (2.5 µM); 0.258 in test [1] (5 µM); -0.0146 in test [1] (10 µM); -0.0213 in test [1] (20 µM). The “fold change of Tryptamine concentration” value in test [2] (0.6125 µM) worked out at 0.708; in test [2] (1.25 µM) it was 0.607; in test [2] (2.5 µM), 0.181; in test [2] (5 µM), 0.0568; in test [2] (10 µM), 0.0233; in test [2] (20 µM) it was 0.018.

(Values after the supplement of paper PMC12494721.)
